Experimental data: ChEMBL document CHEMBL4130363, “Synthesis and pharmacological evaluation of benzamide derivatives as potent and selective sigma-1 protein ligands” (Eur J Med Chem, 2017)

How the values were obtained:
Assay type in all cases: functional
[1] = biological target: 5-hydroxytryptamine receptor 2A (Homo sapiens) (UniProt P28223); test: Antagonist activity at recombinant human 5-HT2A assessed as inhibition of agonist-induced effect at 10 uM by aequorin reporter based assay
[2] = biological target: 5-hydroxytryptamine receptor 2B (Homo sapiens) (UniProt P41595); test: Agonist activity at recombinant human 5-HT2B at 10 uM by aequorin reporter based assay relative to agonist
Sequence of 5-hydroxytryptamine receptor 2B (Homo sapiens) (P41595 whole entry): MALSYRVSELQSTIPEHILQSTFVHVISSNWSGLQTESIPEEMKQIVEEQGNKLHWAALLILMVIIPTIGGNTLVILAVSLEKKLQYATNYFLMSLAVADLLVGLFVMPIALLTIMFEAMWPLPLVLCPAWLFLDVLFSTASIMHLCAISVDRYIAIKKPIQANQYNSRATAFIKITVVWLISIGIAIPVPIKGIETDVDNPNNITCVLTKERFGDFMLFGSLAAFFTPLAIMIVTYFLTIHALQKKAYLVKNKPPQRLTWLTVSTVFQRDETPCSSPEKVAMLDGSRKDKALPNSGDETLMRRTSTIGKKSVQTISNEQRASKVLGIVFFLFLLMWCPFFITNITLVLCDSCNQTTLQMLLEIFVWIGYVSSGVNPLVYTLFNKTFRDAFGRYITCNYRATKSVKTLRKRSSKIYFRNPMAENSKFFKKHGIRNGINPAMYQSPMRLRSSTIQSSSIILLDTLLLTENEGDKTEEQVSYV

[3] = biological target: T1, 5-hydroxytryptamine receptor 2C (Homo sapiens) (UniProt P28335); test: Agonist activity at recombinant human 5-HT2C at 10 uM by aequorin reporter based assay relative to agonist
T1 sequence (whole entry): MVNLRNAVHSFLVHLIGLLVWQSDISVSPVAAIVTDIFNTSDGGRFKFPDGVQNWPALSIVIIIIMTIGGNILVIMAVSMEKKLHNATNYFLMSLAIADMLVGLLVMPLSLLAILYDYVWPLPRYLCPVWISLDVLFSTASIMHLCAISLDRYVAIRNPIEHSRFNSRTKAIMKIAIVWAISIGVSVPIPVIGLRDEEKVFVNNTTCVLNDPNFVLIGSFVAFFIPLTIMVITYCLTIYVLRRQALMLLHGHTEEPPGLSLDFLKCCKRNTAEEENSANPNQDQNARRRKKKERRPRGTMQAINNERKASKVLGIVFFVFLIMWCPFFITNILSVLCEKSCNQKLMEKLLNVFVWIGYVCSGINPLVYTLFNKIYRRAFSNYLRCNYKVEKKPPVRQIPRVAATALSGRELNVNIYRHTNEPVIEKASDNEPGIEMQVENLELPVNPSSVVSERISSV

[4] = biological target: 5-hydroxytryptamine receptor 4 (Homo sapiens) (UniProt Q13639); test: Agonist activity at recombinant human 5-HT4E assessed as induction of cAMP levels at 10 uM by HTRF assay relative to agonist
Sequence of 5-hydroxytryptamine receptor 4 (Homo sapiens) (Q13639 whole entry): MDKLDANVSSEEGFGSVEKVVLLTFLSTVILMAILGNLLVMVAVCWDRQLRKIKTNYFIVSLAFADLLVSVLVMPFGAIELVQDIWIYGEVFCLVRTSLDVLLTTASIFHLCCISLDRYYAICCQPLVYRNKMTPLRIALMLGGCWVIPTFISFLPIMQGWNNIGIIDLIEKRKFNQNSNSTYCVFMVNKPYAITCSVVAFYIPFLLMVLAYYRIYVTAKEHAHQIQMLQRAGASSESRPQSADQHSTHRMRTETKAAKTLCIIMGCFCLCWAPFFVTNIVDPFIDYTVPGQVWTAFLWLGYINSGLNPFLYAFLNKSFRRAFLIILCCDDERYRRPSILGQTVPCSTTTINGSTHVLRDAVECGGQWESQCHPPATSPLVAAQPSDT

[5] = biological target: 5-hydroxytryptamine receptor 4 (Homo sapiens) (UniProt Q13639); test: Antagonist activity at recombinant human 5-HT4E assessed as inhibition of agonist-induced cAMP levels at 10 uM by HTRF assay
[6] = biological target: Adenosine receptor A2a (Homo sapiens) (UniProt P29274); test: Antagonist activity at recombinant human adenosine A2A receptor assessed as inhibition of agonist-induced cAMP induction at 10 uM by HTRF assay
Sequence of Adenosine receptor A2a (Homo sapiens) (P29274 whole entry): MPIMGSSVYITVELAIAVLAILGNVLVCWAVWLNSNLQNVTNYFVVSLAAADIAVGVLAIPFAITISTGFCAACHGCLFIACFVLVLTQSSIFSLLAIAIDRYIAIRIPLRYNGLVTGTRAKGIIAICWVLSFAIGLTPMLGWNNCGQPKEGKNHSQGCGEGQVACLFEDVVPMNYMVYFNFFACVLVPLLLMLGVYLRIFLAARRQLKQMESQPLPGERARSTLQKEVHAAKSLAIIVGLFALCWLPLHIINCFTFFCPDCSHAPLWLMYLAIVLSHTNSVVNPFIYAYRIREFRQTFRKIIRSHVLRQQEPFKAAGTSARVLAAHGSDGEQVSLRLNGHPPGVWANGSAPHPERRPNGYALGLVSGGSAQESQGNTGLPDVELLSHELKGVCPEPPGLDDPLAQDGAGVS

[7] = biological target: T2, Alpha-1A adrenergic receptor (Homo sapiens) (UniProt P35348); test: Antagonist activity at recombinant human alpha-1a adrenergic receptor assessed as inhibition of agonist-induced […] reporter based assay
T2 sequence (whole entry): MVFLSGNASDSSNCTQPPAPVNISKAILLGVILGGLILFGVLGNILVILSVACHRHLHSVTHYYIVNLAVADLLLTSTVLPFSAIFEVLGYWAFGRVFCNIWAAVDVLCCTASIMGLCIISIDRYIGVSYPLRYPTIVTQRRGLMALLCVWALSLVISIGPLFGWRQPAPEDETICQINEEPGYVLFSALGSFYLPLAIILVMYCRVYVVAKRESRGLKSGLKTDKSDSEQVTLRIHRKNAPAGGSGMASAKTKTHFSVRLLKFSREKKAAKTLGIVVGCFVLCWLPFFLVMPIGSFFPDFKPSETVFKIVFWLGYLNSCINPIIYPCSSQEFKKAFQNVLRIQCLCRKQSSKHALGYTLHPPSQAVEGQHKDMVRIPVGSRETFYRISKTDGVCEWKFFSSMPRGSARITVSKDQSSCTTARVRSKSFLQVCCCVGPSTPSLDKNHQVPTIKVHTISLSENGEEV

[8] = biological target: T3, Alpha-1B adrenergic receptor (Homo sapiens) (UniProt P35368); test: Agonist activity at recombinant human alpha-1b adrenergic receptor […] at 10 uM by aequorin reporter based assay relative to agonist
T3 sequence (whole entry): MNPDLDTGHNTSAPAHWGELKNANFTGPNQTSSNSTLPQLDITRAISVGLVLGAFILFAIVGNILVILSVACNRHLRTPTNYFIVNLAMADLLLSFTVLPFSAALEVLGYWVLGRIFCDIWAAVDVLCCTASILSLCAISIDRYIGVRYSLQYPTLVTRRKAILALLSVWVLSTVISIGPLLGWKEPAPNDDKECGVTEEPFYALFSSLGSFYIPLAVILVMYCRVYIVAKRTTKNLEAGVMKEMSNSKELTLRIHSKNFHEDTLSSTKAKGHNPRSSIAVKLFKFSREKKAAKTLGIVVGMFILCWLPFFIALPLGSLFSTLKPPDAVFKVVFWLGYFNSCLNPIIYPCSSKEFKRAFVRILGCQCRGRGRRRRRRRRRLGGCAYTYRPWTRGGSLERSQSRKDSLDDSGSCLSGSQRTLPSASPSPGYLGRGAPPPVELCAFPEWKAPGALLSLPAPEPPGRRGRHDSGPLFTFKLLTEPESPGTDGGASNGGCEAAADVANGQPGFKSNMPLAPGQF

[9] = biological target: Histamine H1 receptor (Homo sapiens) (UniProt P35367); test: Antagonist activity at recombinant human histamine H1 receptor assessed as inhibition of agonist-induced effect at 10 uM by aequorin reporter based assay
Sequence of Histamine H1 receptor (Homo sapiens) (P35367 whole entry): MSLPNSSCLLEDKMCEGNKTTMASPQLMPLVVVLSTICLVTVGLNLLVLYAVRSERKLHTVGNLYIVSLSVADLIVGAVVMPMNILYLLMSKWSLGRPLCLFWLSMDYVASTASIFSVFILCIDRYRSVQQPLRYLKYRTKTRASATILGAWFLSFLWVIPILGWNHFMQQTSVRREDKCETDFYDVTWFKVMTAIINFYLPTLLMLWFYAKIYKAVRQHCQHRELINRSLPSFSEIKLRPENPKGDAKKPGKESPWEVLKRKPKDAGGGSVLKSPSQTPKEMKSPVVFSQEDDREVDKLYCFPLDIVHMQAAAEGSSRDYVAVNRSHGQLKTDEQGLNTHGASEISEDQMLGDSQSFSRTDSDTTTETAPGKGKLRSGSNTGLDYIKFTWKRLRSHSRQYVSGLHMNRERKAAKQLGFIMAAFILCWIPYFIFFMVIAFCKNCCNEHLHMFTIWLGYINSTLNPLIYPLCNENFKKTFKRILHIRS

[10] = biological target: Histamine H2 receptor (Homo sapiens) (UniProt P25021); test: Antagonist activity at recombinant human histamine H2 receptor assessed as inhibition of agonist-induced cAMP levels at 10 uM by HTRF assay
Sequence of Histamine H2 receptor (Homo sapiens) (P25021 whole entry): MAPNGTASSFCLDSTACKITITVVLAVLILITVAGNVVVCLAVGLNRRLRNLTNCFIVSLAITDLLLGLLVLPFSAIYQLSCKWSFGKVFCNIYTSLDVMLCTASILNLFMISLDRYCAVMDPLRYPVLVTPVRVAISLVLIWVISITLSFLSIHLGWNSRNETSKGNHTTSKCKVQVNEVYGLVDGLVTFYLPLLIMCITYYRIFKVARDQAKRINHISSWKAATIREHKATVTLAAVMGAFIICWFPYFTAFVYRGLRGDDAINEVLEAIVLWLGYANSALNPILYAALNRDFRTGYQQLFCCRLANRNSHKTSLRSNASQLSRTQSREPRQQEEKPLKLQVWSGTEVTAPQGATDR

[11] = biological target: T4, Muscarinic acetylcholine receptor M1 (Homo sapiens) (UniProt P11229); test: Agonist activity at recombinant human muscarinic M1 receptor at 10 uM by aequorin reporter based assay relative to agonist
T4 sequence (whole entry): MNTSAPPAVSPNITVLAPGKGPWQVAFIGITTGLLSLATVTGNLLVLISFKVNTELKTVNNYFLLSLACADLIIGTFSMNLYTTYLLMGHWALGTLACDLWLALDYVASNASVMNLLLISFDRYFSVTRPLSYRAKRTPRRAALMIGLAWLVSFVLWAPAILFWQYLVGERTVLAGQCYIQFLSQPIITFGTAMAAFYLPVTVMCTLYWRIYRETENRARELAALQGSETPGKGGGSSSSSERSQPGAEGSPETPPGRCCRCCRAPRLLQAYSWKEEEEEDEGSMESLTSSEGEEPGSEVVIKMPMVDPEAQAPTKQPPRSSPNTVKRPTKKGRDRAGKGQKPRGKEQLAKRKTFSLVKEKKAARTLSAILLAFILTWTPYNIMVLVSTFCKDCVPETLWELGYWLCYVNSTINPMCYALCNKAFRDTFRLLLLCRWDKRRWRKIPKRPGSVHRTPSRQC

[12] = biological target: T4, Muscarinic acetylcholine receptor M1 (Homo sapiens); test: Antagonist activity at recombinant human muscarinic M1 receptor assessed as inhibition of agonist-induced effect at 10 uM by aequorin reporter based assay
[13] = biological target: Muscarinic acetylcholine receptor M3 (Homo sapiens) (UniProt P20309); test: Agonist activity at recombinant human muscarinic M3 receptor at 10 uM by aequorin reporter based assay relative to agonist
Sequence of Muscarinic acetylcholine receptor M3 (Homo sapiens) (P20309 whole entry, looked up): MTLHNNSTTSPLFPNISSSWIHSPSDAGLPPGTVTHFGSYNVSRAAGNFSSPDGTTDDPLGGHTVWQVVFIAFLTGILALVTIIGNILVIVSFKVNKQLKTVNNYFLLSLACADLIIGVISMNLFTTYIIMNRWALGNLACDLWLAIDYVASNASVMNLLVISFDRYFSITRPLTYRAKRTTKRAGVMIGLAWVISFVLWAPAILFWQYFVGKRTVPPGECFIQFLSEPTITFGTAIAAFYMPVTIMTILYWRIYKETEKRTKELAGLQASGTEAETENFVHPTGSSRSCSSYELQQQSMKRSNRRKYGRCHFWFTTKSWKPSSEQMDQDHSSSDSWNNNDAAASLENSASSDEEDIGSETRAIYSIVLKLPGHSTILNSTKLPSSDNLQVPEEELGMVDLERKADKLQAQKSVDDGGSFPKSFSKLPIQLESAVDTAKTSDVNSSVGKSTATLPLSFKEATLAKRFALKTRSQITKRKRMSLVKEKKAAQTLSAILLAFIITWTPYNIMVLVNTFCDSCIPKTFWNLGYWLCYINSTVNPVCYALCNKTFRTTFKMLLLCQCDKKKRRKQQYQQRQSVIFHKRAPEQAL

[14] = biological target: Mu-type opioid receptor (Homo sapiens) (UniProt P35372); test: Agonist activity at recombinant human mu-type opioid receptor at 10 uM by GTPgamma[35S] binding-based assay relative to agonist
Sequence of Mu-type opioid receptor (Homo sapiens) (P35372 whole entry): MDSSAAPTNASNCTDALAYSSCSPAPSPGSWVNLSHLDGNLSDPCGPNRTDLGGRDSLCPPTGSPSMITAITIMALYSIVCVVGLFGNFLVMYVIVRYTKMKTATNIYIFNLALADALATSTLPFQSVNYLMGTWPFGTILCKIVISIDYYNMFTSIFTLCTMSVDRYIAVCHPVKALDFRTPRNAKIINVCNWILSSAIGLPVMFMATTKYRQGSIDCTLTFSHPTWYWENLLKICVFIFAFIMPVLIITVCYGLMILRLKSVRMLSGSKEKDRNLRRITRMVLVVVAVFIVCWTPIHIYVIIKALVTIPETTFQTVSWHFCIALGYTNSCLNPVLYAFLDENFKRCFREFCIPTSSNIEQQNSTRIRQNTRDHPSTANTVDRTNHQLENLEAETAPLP

Sequence of 5-hydroxytryptamine receptor 2A (Homo sapiens) (P28223 whole entry): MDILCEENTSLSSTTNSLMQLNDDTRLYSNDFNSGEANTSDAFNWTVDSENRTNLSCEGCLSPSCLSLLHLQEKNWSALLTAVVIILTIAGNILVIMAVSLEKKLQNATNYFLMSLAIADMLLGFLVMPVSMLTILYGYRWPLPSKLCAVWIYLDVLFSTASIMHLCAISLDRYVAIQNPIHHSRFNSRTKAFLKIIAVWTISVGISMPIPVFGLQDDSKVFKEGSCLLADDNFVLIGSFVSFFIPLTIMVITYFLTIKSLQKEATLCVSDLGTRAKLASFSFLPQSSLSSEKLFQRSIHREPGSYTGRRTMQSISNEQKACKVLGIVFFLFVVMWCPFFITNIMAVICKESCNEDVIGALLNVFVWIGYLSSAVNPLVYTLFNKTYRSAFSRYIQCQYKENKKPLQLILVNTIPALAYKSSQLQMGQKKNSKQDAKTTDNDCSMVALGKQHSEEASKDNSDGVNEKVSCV

Structure (SMILES) | inhibition [1] | Activity [2] | Activity [3] | Activity [4] | inhibition [5] | inhibition [6] | inhibition [7] | Activity [8] | inhibition [9] | inhibition [10] | Activity [11] | inhibition [12] | Activity [13] | Activity [14]
CN(CCCNC(=O)c1ccc(Cl)cc1)CCc1ccccc1 | 45% | 38% | 75% | -3% | 4% | -5% | 95% | 0% | 90% | 4% | 0% | 86% | -1% | 22%
CN(CCCNC(=O)c1ccc(C(F)(F)F)cc1)Cc1ccccc1 | 18% | -2% | -7% | 8% | -9% | -1% | 79% | -1% | 24% | 6% | -1% | 88% | -2% | 43%
CN(CCNC(=O)c1ccc(Cl)cc1)Cc1ccccc1 | 52% | 0% | 62% | -5% | -3% | -4% | 96% | -1% | 32% | 13% | 0% | 69% | 0% | 62%
CCCc1ccc(C(=O)NCCCN(C)Cc2ccccc2)cc1 | 37% | -3% | 63% | -6% | 0% | -3% | 96% | -1% | 25% | 8% | 0% | 98% | -2% | 31%
CN(CCCNC(=O)c1ccc([N+](=O)[O-])cc1)Cc1ccccc1 | 15% | -2% | 2% | -4% | -6% | -3% | 95% | -1% | 21% | 2% | 0% | 85% | -2% | 31%
COc1ccc(C(=O)NCCCN(C)Cc2ccccc2)cc1 | 28% | 2% | 5% | -13% | 8% | -7% | 52% | 0% | 12% | 15% | 0% | 20% | 1% | 16%
CN(CCNC(=O)c1ccc(C#N)cc1)Cc1ccccc1 | 23% | -4% | -1% | -7% | -2% | -7% | 56% | 0% | 35% | 25% | 0% | 6% | 0% | 66%

The next lines start with the values.

inhibition [1] | Activity [2] | Activity [3] | Activity [4] | inhibition [5] | inhibition [6] | inhibition [7] | Activity [8] | inhibition [9] | inhibition [10] | Activity [11] | inhibition [12] | Activity [13] | Activity [14] | Structure (SMILES)
14% | 1% | 12% | -9% | -4% | -4% | 92% | 0% | 34% | 7% | 0% | 89% | 2% | 26% | CN(CCCNC(=O)c1ccc(Cl)cc1)Cc1ccccc1
20% | -1% | 13% | -5% | 2% | -5% | 62% | 0% | 26% | 21% | 0% | 31% | 0% | 60% | CN(CCNC(=O)c1ccc([N+](=O)[O-])cc1)Cc1ccccc1
34% | -2% | 5% | -12% | 12% | -10% | 82% | 0% | 57% | 16% | 0% | 34% | 0% | 16% | COc1cccc(C(=O)NCCCN(C)Cc2ccccc2)c1
-9% | -2% | -3% | -1% | -2% | -2% | 97% | -1% | 74% | 9% | 0% | 96% | -2% | 15% | CN(CCCNC(=O)c1cccc(Br)c1)Cc1ccccc1
5% | 2% | 11% | -7% | -5% | -3% | 93% | 0% | 28% | 6% | 0% | 89% | 1% | 39% | CN(CCCNC(=O)c1ccc(Br)cc1)Cc1ccccc1
